Like-named read-outs stand apart in the source and are kept apart here. Where a SMILES comes first, the peptide text is derived from it. Bridges are numbered along the chain shown (N, C = ends).
What was measured:
[1] = biological target: T1, streptavidin (Streptomyces avidinii, UniProt P22629); assay: HABA-competitive binding determination, streptavidin-HABA complex
T1 construct: purchased Pierce
Protocol: (§1) After 60 minutes, the absorbance of the complex was monitored at 500 nm. To calculate the IC50s of the selected peptides, the average of three separate trials were fitted to the Hill equation, [formula] where [L] is the total ligand concentration, [L]F is free ligand concentration, [L]B is bound ligand concentration and nH is the Hill coefficient (Hill, The possible effects of the aggregation of the molecules of haemoglobin on its dissociation curves. J Physiol 1910; 40:4-8). […] Best fit equations were calculated using KaleidaGraph (Synergy Software).

[2] = biological target: T2, NeutrAvidin (Gallus gallus, UniProt P02701); assay: HABA-competitive binding determination, HABA-NeutrAvidin complex; conditions: linear (uncyclized) peptides; read-out: dissociation constant, Neutravidin, linear peptides
T2 construct: purchased Pierce
T2 sequence (P02701 25-152): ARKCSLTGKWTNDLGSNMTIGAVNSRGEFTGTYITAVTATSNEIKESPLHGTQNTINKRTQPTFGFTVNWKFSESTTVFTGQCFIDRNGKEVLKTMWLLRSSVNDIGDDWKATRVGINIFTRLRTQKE
Protocol: as §1

[3] = biological target: T3, avidin (Gallus gallus, UniProt P02701); assay: HABA-competitive binding determination, avidin-HABA complex; parameters: purchased Pierce; species or system chicken; conditions: linear (uncyclized) peptides; read-out: dissociation constant, avidin, linear peptides
T3 sequence (P02701 25-152): as above
Protocol: as §1

[4] = biological target: T2, NeutrAvidin; assay: HABA saturation of NeutrAvidin; assay type: binding; conditions: calculated value, supplementary material; read-out: dissociation constant of the HABA-NeutrAvidin complex
Protocol: as §1

[5] = biological target: T3, avidin; conditions: pH of 7, literature value; read-out: Kd HABA-avidin; cited from earlier work
[6] = biological target: T2, NeutrAvidin; assay: Phage-displayed cyclic peptide selection against NeutrAvidin (clone sequencing); assay type: binding
Protocol: XL1-Blue E. coli containing the phagemid library vector were grown from glycerol stocks in 5 mL of 2×YT media with glucose and ampicillin selection at 37° C. Titered M13KO7 helper phage (5×10^9 pfu) was added when the culture reached an OD600 of 0.8 and was incubated for 1 hour. The culture was then pelleted via centrifugation, the cells were resuspended in 2×YT with ampicillin and kanamycin, and allowed to grow overnight. After 10 hours of incubation, the culture was again pelleted by centrifugation and the supernatant was filtered through a 0.45 μm sterile filter to remove trace E. coli. The phage was isolated from the supernatant by PEG (polyethylene glycol) precipitation. 1 mL of 20% PEG in 2.5 M NaCl was added to the 5 mL of filtered media. The resulting precipitate was isolated by centrifugation at 18,000 rcf. The phage pellet was resuspended in 5 mL of Tris Buffer A (20 mM Tris-HCl, 150 mM NaCl, and 0.05% Tween 20 at pH=7.4). The phage was then re-precipitated with 1 mL PEG/NaCl, isolated via centrifugation, and resuspended in 1 mL of Tris Buffer A.
100 μL of the phage solution was then exposed to a well of a NeutrAvidin coated polystyrene plate (Pierce) that had been previously rinsed with Tris Buffer A. After 1 hour of incubation, the phage solution was discarded and the well was washed six times for 10 minutes each with 200 μL of Tris Buffer A. Bound phage was eluted with 200 μL of 0.2 M glycine (pH=2.0) by incubation for 10 minutes, followed by neutralization with 40 μL of 2 M Tris base. The input phage and eluted phage were then used to infect two 5 mL tetracycline-selected cultures of XL1 Blue E. coli (OD600=0.8). After 1 hour, the cells were pelleted and resuspended in 5 mL of 2×YT with ampicillin and glucose. […]
Phage display selection and synthesis of NeutrAvidin binding peptides. […] The library was expressed as a fusion to the gene III protein of M13 filamentous bacteriophage, C-terminal to the periplasmic signaling sequence and N-terminal to a peptide linker and the rest of the gene III protein (see supplementary material). […]

T1 sequence (P22629 25-183): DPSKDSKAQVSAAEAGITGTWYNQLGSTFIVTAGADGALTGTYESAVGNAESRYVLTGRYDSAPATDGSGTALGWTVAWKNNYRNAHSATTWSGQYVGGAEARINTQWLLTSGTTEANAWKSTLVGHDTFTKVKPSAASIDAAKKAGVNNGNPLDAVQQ

Row | Compound | Kd [1] [µM] | Kd [2] [µM] | Kd [3] [µM] | further results
1 | CC(C)C[C@@H]1NC(=O)[C@H](CC(=O)O)NC(=O)[C@@H](N)CSSC[C@@H](C(=O)NCC(N)=O)NC(=O)[C@H](Cc2c[nH]c3ccccc23)NC(=O)[C@@H]2CCCN2C(=O)[C@H](CO)NC(=O)[C@H](C)NC1=O [DLASPW] (H-CDLASPWCG-NH2; disulfide 1-8; N-terminus assumed) | > 5000 | – | – | –
2 | C[C@@H]1NC(=O)[C@H](CCCNC(=N)N)NC(=O)[C@H](CC(=O)O)NC(=O)[C@@H](N)CSSC[C@@H](C(=O)NCC(N)=O)NC(=O)[C@H](Cc2ccc(O)cc2)NC(=O)[C@@H]2CCCN2C(=O)[C@H](CO)NC1=O [DRASPY] (H-CDRASPYCG-NH2; disulfide 1-8) | > 5000 | < 500 | < 500 | –
3 | C[C@@H]1NC(=O)[C@H](CCCNC(=N)N)NC(=O)[C@H](CC(=O)O)NC(=O)[C@@H](N)CSSC[C@@H](C(=O)NCC(N)=O)NC(=O)[C@H](Cc2ccc(O)cc2)NC(=O)[C@@H]2CCCN2C(=O)[C@H]([C@@H](C)O)NC1=O [DRATPY] (H-CDRATPYCG-NH2; disulfide 1-8) | > 5000 | < 500 | < 500 | –
4 | O=C(O)c1ccccc1N=Nc1ccc(O)cc1 [HABA, 4′-hydroxyazobenzene-2-carboxylic acid] | – | – | – | Kd [4]: 15 µM; Kd [5]: 7 µM
5 | CDRASPWC [not synthesized] | – | – | – | % of clones, Round 3 ([6]; round 3, 15 clones sequenced): 20%; % of clones, Round 4 ([6]; round 4, 26 clones sequenced): 8%; % of clones, Round 5 ([6]; round 5, 40 clones sequenced): 5%

— patent publication US20080032340A1, “Peptide motifs for binding avidin or neutravidin” (University of Arizona, priority 2006, published 2008)
